Measurements: patent US5162328A, “N-[3-[2-(1H-imidazol-1-yl)ethoxy]phenyl]-4-(2-thienyl)-2-pyrimidinamine and pharmacologically acceptable salts” (American Cyanamid Company, priority 1991, dated 1992)
Values joined by “and” are separate entries in the source; they are usually repeats but may differ in a detail not shown here. Identical values can stand only once.

System: passive cutaneous anaphylaxis lesions in the rat
Experiment: Rat Passive Cutaneous Anaphylaxis Assay (PCA)
Assay type: in vivo, rat (male Wistar strain)
Conditions: for Lesion Area (Low IgE) / Lesion Area (High IgE): mean ± SD
Description: Solutions made by dissolving 0.50 g in 100 ml of normal saline. Mouse monoclonal IgE (ICN Biochemicals) clone SPE-7 directed against DNP is subdivided into 50 ul aliquots and stored at -70° C. DNP-ovalbumin is made by reacting DNP sulfonic acid with ovalbumin dissolved in saline overnight at room temperature. The resulting solution is dialyzed extensively at 4 C to remove unreacted DNPsulfonic acid and stored as 1 mL aliquots of 100 mg/ml at -70° C. Male Wistar strain rats, certified viral free, weighing 250-300 g are obtained from Hilltop Laboratory Animals and housed, in accordance with AALAC standards, on site for at least one week before use. Forty-eight hours before challenge the rats are shaved on the dorsal surfaces and returned to the cages. Twenty-four hours before challenge the rats are given intradermal injections of 0.1 mL, one on each flank, of saline containing IgE at concentrations ranging from 1000 to 250 ng/mL. These injections give a local dose of 100 to 25 ng IgE. The IgE binds to specific receptors on mast cells in the skin. […] To the Evan's blue dye is added sufficient DNP-ovalbumin to make a 1 mg/ml solution. This allergen containing dye is injected intravenously via a tail vein into the rats at 10 ml/Kg. The Evans' blue binds to plasma albumin and remains in the vascular space under conditions of normal capillary permeability. The allergen, which can diffuse into the extravascular space, binds to the IgE on the surface of the cutaneous mast cells and initiates the immediate hypersensitivity response which leads to the release of histamine by intracellular granules of the mast cell. The histamine causes an increase in capillary permeability which allows plasma proteins including the dye tagged albumin to diffuse into the extracellular space resulting in a blue spot in the skin. The size of the lesion is proportional to the amounts of mediators released. This process reaches an optimum in 30 minutes. Thirty minutes after challenge the rats are euthanized by CO2. The skin is reflected from the back and the lesion areas estimated as the product of the largest diameter of the bluespot and the diameter perpendicular to it. A compound which is a mediator release inhibitor will reduce the spot area. The effectiveness of the compounds is determined by Analysis of Variance of the lesion areas grouped by IgE dose and compound. Compounds are considered active at the P<0.05 level. Table II contains the results of the experiments expressed as the areas of the lesions in mm^2. The control lesions for these experiments are also listed. Because more than one compound at a time is tested, some of the control values are repeated in the table. Table III contains the data expressed as a % of the appropriate control.

[1] = 0.5 mg/kg PO 2 hrs, IgE 50 ng/site

## c1cc(Nc2nccc(-c3cccs3)n2)cc(OCCn2ccnc2)c1 [N-[3-[2-(1H-imidazol-1-yl)ethoxy]phenyl]-4-(2-thienyl)-2-pyrimidinamine]
Compared with the two compounds of U.S. Pat. No. 4,788,195
  activity in rat PCA test (in words): essentially equivalent high activity

## CCN(CC)CCOc1ccc(Nc2nccc(-c3ccncc3)n2)cc1.Cl.Cl [Compound 3, N-[4-[2-(diethylamino)ethoxy]phenyl]-4-(4-pyridinyl)-2-pyrimidinamine dihydrochloride, reference compound]
0.25 mg/kg PO 2 hrs, IgE 33 ng/site
  Lesion Area (Low IgE): 108 ± 26 mm^2
0.25 mg/kg PO 2 hrs, IgE 50 ng/site
  Lesion Area (High IgE): 215 ± 24 mm^2
0.25 mg/kg PO @ 2 hrs
  % CONTROL (lesion area): 45.1%
0.5 mg/kg PO 2 hrs, IgE 33 ng/site
  Lesion Area (Low IgE): 68 ± 44 mm^2
[1]
  Lesion Area (High IgE): 149 ± 22 mm^2
0.5 mg/kg PO @ 2 hrs
  % CONTROL (lesion area): 28.6%
2.5 mg/kg PO 2 hrs, IgE 25 ng/site
  Lesion Area (Low IgE): 54 ± 38 mm^2
2.5 mg/kg PO 2 hrs, IgE 100 ng/site
  Lesion Area (High IgE): 105 ± 47 mm^2
2.5 mg/kg PO @ 2 hrs
  % CONTROL (lesion area): 33.7%

## Cc1cc(Nc2nccc(-c3ccncc3)n2)ccc1N.Cl.Cl [Compound 2, 2-methyl-N^4-[4-(4-pyridinyl)-2-pyrimidinyl]-1,4-benzenediamine dihydrochloride, reference compound]
0.5 mg/kg PO 2 hrs, IgE 25 ng/site, dihydrochloride
  Lesion Area (Low IgE): 135 ± 20 mm^2 and 97 ± 7 mm^2 and 105 ± 12 mm^2
[1]
  Lesion Area (High IgE): 157 ± 15 mm^2
0.5 mg/kg PO 2 hrs, IgE 100 ng/site, dihydrochloride
  Lesion Area (High IgE): 217 ± 35 mm^2 and 362 ± 62 mm^2
0.5 mg/kg PO @ 2 hrs, dihydrochloride
  % CONTROL (lesion area): 113.6% and 74.6% and 81%
1.0 mg/kg PO 2 hrs, IgE 25 ng/site
  Lesion Area (Low IgE): 10 ± 15 mm^2
1.0 mg/kg PO 2 hrs, IgE 50 ng/site
  Lesion Area (High IgE): 123 ± 16 mm^2
1 mg/kg PO @ 2 hrs
  % CONTROL (lesion area): 57.9%
